This is an account of results in patent US12011444B2, “N-substituted indole derivatives as PGE2 receptor modulators” (Idorsia Pharmaceuticals Ltd, priority 2015, dated 2024).

One test addresses PTGER2 (EP2) (Homo sapiens (Human), UniProt P43116). In words: hEP2 b-arrestin assay (PathHunter HEK 293 PTGER2 b-arrestin cells). It counts as cell-based. The method in brief: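 HEK293 cells expressing ProLink-tagged EP2 and EA-fused β-arrestin 2 (enzyme fragment complementation) were seeded 24 h, pre-incubated with compound 15 min at 37 °C, then stimulated with 5 μM PGE2 (final) for 120 min.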

In another test the target is PTRGER4 (EP4) (Homo sapiens (Human), UniProt P35408). In words: hEP4 b-arrestin assay (PathHunter HEK 293 PTGER4 b-arrestin cells). In kind it is cell-based. In outline:
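Stably transfected HEK293 cells carrying EP4–ProLink and β-arrestin 2–EA (β-gal fragment complementation), pre-incubated with compound 15 min at 37 °C, then stimulated with PGE2 (20 nM final) for 120 min at 37 °C. Chemiluminescence read after 1 h detection reagent at room temperature; activity per concentration expressed as percent of DMSO control.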

[1] abbreviates: hEP2 b-arrestin assay (values without asterisk).
Where [2] appears, read: hEP4 b-arrestin assay (values without asterisk).
Setting [3] is: antagonistic activity on hEP2, mean where measured multiple times.
Setting [4] is: antagonistic activity on hEP4, mean where measured multiple times.

In general, IC50 refers to the concentration that inhibits the measured activity by half. The low end stands for greater potency, the high end for weaker potency.

Sequence of PTRGER4 (EP4) (P35408 whole entry, looked up, the tested form may be a part): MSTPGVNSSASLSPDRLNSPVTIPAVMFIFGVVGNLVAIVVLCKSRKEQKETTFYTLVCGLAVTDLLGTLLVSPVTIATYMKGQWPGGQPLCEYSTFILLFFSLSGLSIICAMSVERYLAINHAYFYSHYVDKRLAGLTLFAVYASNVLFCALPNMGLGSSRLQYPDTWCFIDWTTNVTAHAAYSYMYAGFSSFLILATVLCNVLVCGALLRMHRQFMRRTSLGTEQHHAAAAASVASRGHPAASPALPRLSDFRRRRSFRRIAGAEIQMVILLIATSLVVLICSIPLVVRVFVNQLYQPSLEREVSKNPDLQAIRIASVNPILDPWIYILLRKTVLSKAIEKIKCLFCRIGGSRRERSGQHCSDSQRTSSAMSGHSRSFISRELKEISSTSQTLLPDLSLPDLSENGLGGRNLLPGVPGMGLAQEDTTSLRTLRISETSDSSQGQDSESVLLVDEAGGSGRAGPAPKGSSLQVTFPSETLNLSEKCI
Sequence of PTGER2 (EP2) (P43116 whole entry, the tested form may be a part): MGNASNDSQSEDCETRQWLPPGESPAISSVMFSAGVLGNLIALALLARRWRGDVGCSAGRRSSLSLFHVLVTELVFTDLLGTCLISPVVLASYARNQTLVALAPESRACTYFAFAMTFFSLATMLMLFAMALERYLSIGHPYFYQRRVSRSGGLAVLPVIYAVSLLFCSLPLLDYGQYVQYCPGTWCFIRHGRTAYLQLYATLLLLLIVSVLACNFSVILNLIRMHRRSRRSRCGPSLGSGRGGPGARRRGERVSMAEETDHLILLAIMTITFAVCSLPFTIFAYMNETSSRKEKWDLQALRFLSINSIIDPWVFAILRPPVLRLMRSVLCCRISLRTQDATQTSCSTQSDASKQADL

Turning to `CCOc1cc(-c2cc(NCCn3c(C)cc4c(OC)ccc(F)c43)ncn2)ccc1-c1noc(=O)[nH]1` [Example 830, 3-(2-Ethoxy-4-{6-[2-(7-fluoro-4-methoxy-2-methyl-indol-1-yl)-ethylamino]-pyrimidin-4-yl}-phenyl)-[1,2,4]oxadiazol-5(4H)-one], the values for the IC50 against PTGER2 (EP2) (setting [1]) and against PTRGER4 (EP4) (setting [2]) were 3 nM and 12 nM, respectively.

For the molecule `COc1ccc(F)c2c1cc(C#N)n2CCNc1cc(-c2ccc(CCC(=O)O)cc2)ncn1` [Example 1019, 3-(4-{6-[2-(2-Cyano-7-fluoro-4-methoxy-indol-1-yl)-ethylamino]-pyrimidin-4-yl}-phenyl)-propionic acid], the IC50 against PTGER2 (EP2) (setting [1]) amounted to 485 nM; at PTRGER4 (EP4) (setting [2]), 167 nM.

Take `CCOc1cc(-c2cc(NCCn3c(C#N)cc4c(OC)ccc(F)c43)ncn2)sc1C(=O)OCc1oc(=O)oc1C` [Example 1047, 5-{6-[2-(2-Cyano-7-fluoro-4-methoxy-indol-1-yl)-ethylamino]-pyrimidin-4-yl}-3-ethoxy-thiophene-2-carboxylic acid 5-methyl-2-oxo-[1,3]dioxol-4-ylmethyl ester]: the IC50 came out at 5 nM at PTGER2 (EP2) (setting [1]) and 3 nM against PTRGER4 (EP4) (setting [2]).

In the case of `CCOc1cc(-c2cc(NCCn3c(C#N)cc4c(OC)cccc43)ncn2)ccc1OCC(=O)O` [Example 870, (4-{6-[2-(2-Cyano-4-methoxy-indol-1-yl)-ethylamino]-pyrimidin-4-yl}-2-ethoxy-phenoxy)-acetic acid], the figures for the IC50 against PTGER2 (EP2) (setting [1]) and at PTRGER4 (EP4) (setting [2]) were 8 nM and 12 nM, respectively.

Take `CCOc1cc(-c2cc(NCCn3c(C)cc4c(C)cc(F)c(F)c43)ncn2)sc1C(=O)O` [compound 294]: the IC50 on PTGER2 (EP2) (setting [3]) came out at 8 nM; against PTRGER4 (EP4) (setting [4]), 10 nM.

On to `COc1ccc(Cl)c2c1cc(C)n2CCNc1cc(-c2ccc3[nH]cnc3c2)ncn1` [compound 56], for which the IC50 on PTGER2 (EP2) (setting [3]) turned out to be 151 nM; on PTRGER4 (EP4) (setting [4]) it was 698 nM.

As to `Cc1ccc(F)c2c1cc(C)n2CCNc1cc(-c2ccc3ncccc3c2)ncn1` [compound 355], the IC50 came out at 48 nM against PTGER2 (EP2) (setting [3]) and 134 nM on PTRGER4 (EP4) (setting [4]).

Consider `CSc1cc(-c2cc(NCCn3c(C)cc4c(C)c(F)cc(Cl)c43)ncn2)cc(F)c1C(=O)O` [compound 330], for which the IC50 amounted to 102 nM at PTGER2 (EP2) (setting [3]) and 667 nM on PTRGER4 (EP4) (setting [4]).

In the case of `CCOc1cc(-c2cc(NCCn3c(C#N)cc4c(OC)ccc(F)c43)ncn2)sc1C(=O)NS(=O)(=O)c1ccccc1` [Example 814, N-(5-{6-[2-(2-Cyano-7-fluoro-4-methoxy-indol-1-yl)-ethylamino]-pyrimidin-4-yl}-3-ethoxy-thiophene-2-carbonyl)-benzenesulfonamide], the results for the IC50 on PTGER2 (EP2) (setting [1]) and against PTRGER4 (EP4) (setting [2]) were 7 nM and 2 nM, respectively.

Consider `COc1cccc2c1cc(C)n2CCNc1cc(-c2ccc3c(c2)CN(C)C3=O)ncn1` [compound 87], for which the IC50 came to 121 nM on PTGER2 (EP2) (setting [3]) and 885 nM at PTRGER4 (EP4) (setting [4]).

On to `CCc1cc(-c2cc(NCCn3c(C)cc4ccccc43)ncn2)sc1C(=O)O` [compound 6], for which the results for the IC50 against PTGER2 (EP2) (setting [3]) and against PTRGER4 (EP4) (setting [4]) were 3 nM and 911 nM, respectively.

Consider `CCOc1cc(-c2cc(NCCn3c(C#N)cc4c(OC)ccc(F)c43)ncn2)sc1C(=O)Oc1ccccc1` [Example 1049, 5-{6-[2-(2-Cyano-7-fluoro-4-methoxy-indol-1-yl)-ethylamino]-pyrimidin-4-yl}-3-ethoxy-thiophene-2-carboxylic acid phenyl ester], for which the IC50 worked out at 21 nM against PTGER2 (EP2) (setting [1]) and 10 nM against PTRGER4 (EP4) (setting [2]).

In the case of `CCOc1cc(-c2cc(NCCn3c(C)cc4cc(C)cc(F)c43)ncn2)ccc1C(=O)O` [compound 285], the IC50 against PTGER2 (EP2) (setting [3]) came out at 47 nM; against PTRGER4 (EP4) (setting [4]), 691 nM.

For `COc1cccc2c1cc(C)n2CCNc1cc(-c2ccc(-c3cc(N)no3)cc2)ncn1` [compound 180, {6-[4-(3-Amino-isoxazol-5-yl)-phenyl]-pyrimidin-4-yl}-[2-(4-methoxy-2-methyl-indol-1-yl)-ethyl]-amine], the IC50 against PTGER2 (EP2) (setting [3]) is 3 nM; against PTRGER4 (EP4) (setting [4]) it was 16 nM.

`COc1ccc(F)c2c1cc(C)n2CCNc1cc(-c2ccc(S(C)(=O)=O)c(F)c2)ncn1` [compound 161]: the figures for the IC50 against PTGER2 (EP2) (setting [3]) and against PTRGER4 (EP4) (setting [4]) were 396 nM and 993 nM, respectively.

As to `COc1ccc(F)c2c1cc(C#N)n2CCNc1cc(-c2ccc(B(O)O)cc2)ncn1` [Example 989, (4-(6-((2-(2-Cyano-7-fluoro-4-methoxy-1H-indol-1-yl)ethyl)amino)pyrimidin-4-yl)phenyl)boronic acid], the IC50 stood at 67 nM against PTGER2 (EP2) (setting [1]) and 62 nM against PTRGER4 (EP4) (setting [2]).

For the molecule `Cc1ccc(F)c2c1cc(C)n2CCNc1cc(-c2ccc(C(=O)NCCO)cc2)ncn1` [compound 168], the IC50 against PTGER2 (EP2) (setting [3]) worked out at 146 nM; against PTRGER4 (EP4) (setting [4]), 995 nM.

In the case of `COc1ccc(F)c2c1cc(C#N)n2CCNc1cc(-c2ccc3c(=O)n(C)[nH]c3c2)ncn1` [Example 920, 7-Fluoro-4-methoxy-1-{2-[6-(2-methyl-3-oxo-2,3-dihydro-1H-indazol-6-yl)-pyrimidin-4-ylamino]-ethyl}-1H-indole-2-carbonitrile], the IC50 was determined as 39 nM on PTGER2 (EP2) (setting [1]) and 68 nM on PTRGER4 (EP4) (setting [2]).

Regarding `COc1ccc(F)c2c1cc(C)n2CCNc1cc(-c2ccc3c(c2)C(C)NC3=O)ncn1` (racemic) [compound 203], the values for the IC50 against PTGER2 (EP2) (setting [3]) and against PTRGER4 (EP4) (setting [4]) were 14 nM and 324 nM, respectively.

Consider `CSc1cc(-c2cc(NCCn3c(C)cc4c(C)ccc(Cl)c43)ncn2)ccc1C(=O)O` [compound 217], for which the IC50 against PTGER2 (EP2) (setting [3]) amounted to 25 nM; at PTRGER4 (EP4) (setting [4]) it was 381 nM.

Turning to `COc1cccc2c1cc(C)n2CCNc1cc(-c2ccc(-c3nc(N)sc3C)cc2)ncn1` [compound 311, {6-[4-(2-Amino-5-methyl-thiazol-4-yl)-phenyl]-pyrimidin-4-yl}-[2-(4-methoxy-2-methyl-indol-1-yl)-ethyl]-amine], the IC50 on PTGER2 (EP2) (setting [3]) is 4 nM; against PTRGER4 (EP4) (setting [4]), 232 nM.

As to `CCOc1nc(-c2cc(NCCn3c(C)cc4c(OC)ccc(F)c43)ncn2)sc1C(=O)O` [Example 1034, 4-Ethoxy-2-{6-[2-(7-fluoro-4-methoxy-2-methyl-indol-1-yl)-ethylamino]-pyrimidin-4-yl}-thiazole-5-carboxylic acid], the IC50 on PTGER2 (EP2) (setting [1]) came out at 5 nM; on PTRGER4 (EP4) (setting [2]), 17 nM.

As for `CCOc1cc(-c2cc(NCCn3c(C#N)cc4c(C)cc(F)c(F)c43)ncn2)ccc1C(=O)O` [Example 956, 4-{6-[2-(2-Cyano-6,7-difluoro-4-methyl-indol-1-yl)-ethylamino]-pyrimidin-4-yl}-2-ethoxy-benzoic acid], the IC50 against PTGER2 (EP2) (setting [1]) amounted to 21 nM; against PTRGER4 (EP4) (setting [2]), 37 nM.

On to `COc1cccc2c1cc(C)n2CCNc1cc(-c2ccc3[nH]c(C)nc3c2)ncn1` [compound 352], for which the IC50 on PTGER2 (EP2) (setting [3]) came out at 49 nM; at PTRGER4 (EP4) (setting [4]) it was 481 nM.

As to `CCN(C=O)c1csc(-c2cc(NCCn3c(C)cc4c(OC)ccc(F)c43)ncn2)c1` [Example 1071, N-Ethyl-N-(5-{6-[2-(7-fluoro-4-methoxy-2-methyl-indol-1-yl)-ethylamino]-pyrimidin-4-yl}-thiophen-3-yl)-formamide], the IC50 against PTGER2 (EP2) (setting [1]) was found to be 23 nM; on PTRGER4 (EP4) (setting [2]) it was 40 nM.

As to `Cc1ccc(F)c2c1cc(C)n2CCNc1cc(-c2ccc(C(=O)O)c(C3CC3)c2)ncn1` [compound 174, 2-Cyclopropyl-4-{6-[2-(7-fluoro-2,4-dimethyl-indol-1-yl)-ethylamino]-pyrimidin-4-yl}-benzoic acid], the IC50 against PTGER2 (EP2) (setting [3]) came to 27 nM; on PTRGER4 (EP4) (setting [4]), 405 nM.

As for `COc1ccc(Cl)c2c1cc(C)n2CCNc1cc(-c2cc(C)c(C(=O)O)c(F)c2)ncn1` [compound 276], the figures for the IC50 against PTGER2 (EP2) (setting [3]) and on PTRGER4 (EP4) (setting [4]) were 65 nM and 885 nM, respectively.
